Data taken from PMC7540527, “Synthesis of Antiviral Perfluoroalkyl Derivatives of Teicoplanin and Vancomycin” (Chemmedchem, 2020).
Values after ≈ are worked out from the molar mass of the structure shown. Like-named read-outs stand apart in the source and are kept apart here.

What was measured:
Vero cells = conditions: African green monkey
E. faecalis 15376 VanA = assay: Antibacterial MIC; assay type: cell-based, Enterococcus faecalis; conditions: for MIC: Enterococcus faecalis, 15376VANA, read-out: MIC E. faecalis 15376 VanA
[1] = tested on: Staphylococcus aureus MSSA ATCC 29213; assay: Antibacterial MIC; assay type: cell-based; conditions: for MIC: Staphylococcus aureus, read-out: MIC Staphylococcus aureus MSSA ATCC 29213
[2] = tested on: Enterococcus faecalis ATCC 29212; assay: Antibacterial MIC; assay type: cell-based; conditions: for MIC: Enterococcus faecalis, ATCC29212, read-out: MIC Enterococcus faecalis ATCC 29212
[3] = tested on: E. faecalis ATCC 51299 VanB; assay: Antibacterial MIC; assay type: cell-based, Enterococcus faecalis; conditions: for MIC: Enterococcus faecalis, ATCC51299, read-out: MIC E. faecalis ATCC 51299 VanB
HeLa cells = conditions: human
[4] = tested on: influenza A and B viruses; assay type: cell-based, influenza virus
[5] = tested on: HEL human embryonic lung fibroblast cells
[6] = tested on: Bacillus subtilis ATCC 6633; assay: Antibacterial MIC; assay type: cell-based; conditions: for MIC: Bacillus subtilis, ATCC6633, read-out: MIC Bacillus subtilis ATCC 6633
[7] = tested on: S. aureus MRSA ATCC 33591; assay: Antibacterial MIC; assay type: cell-based, Staphylococcus aureus; conditions: for MIC: Staphylococcus aureus, read-out: MIC S. aureus MRSA ATCC 33591
[8] = tested on: Staphylococcus epidermidis ATCC 35984 biofilm; assay: Antibacterial MIC; assay type: cell-based
[9] = tested on: influenza A/H3N2 A/Victoria/361/11; assay: microbe, parasite or virus in culture; assay type: cell-based, influenza A virus
in vitro = conditions: dog
[10] = tested on: influenza B virus B/Ned/537/05; assay: CPE reduction assay for influenza virus in MDCK cells, influenza B; assay type: cell-based; conditions: MDCK cells
Procedure: The CPE reduction assay for influenza virus was described in full detail in previous publications.41 The virus strains were: A/PR/8/34 (A/H1 N1); A/Virginia/ATCC3/2009 (A/H1 N1pdm); A/HK/7/87 (A/H3 N2); B/Ned/537/05; and B/HK/5/72. On day 0, Madin‐Darby canine kidney (MDCK) cells in 96‐well plates were infected with influenza virus at a multiplicity of infection (MOI) of 0.0004 plaque forming units (PFU) per cell. After three days incubation at 35 °C, virus‐induced CPE and compound cytotoxicity were scored by microscopy, after which the data were confirmed by formazan‐based MTS cell viability assay (CellTiter 96® AQueous One Solution Cell Proliferation Assay from Promega). The antiviral effect was expressed as the compound concentration producing 50 % inhibition of the virus‐induced CPE (EC50). Compound cytotoxicity was expressed as the compound concentration causing minimal changes in cell morphology (MCC), and 50 % cytotoxic concentration (CC50) based on MTS assay.42

[11] = tested on: influenza A/H1N1 A/Ned/378/05; assay: microbe, parasite or virus in culture; assay type: cell-based, influenza A virus
[12] = tested on: panel of Gram-positive bacteria; assay type: cell-based

| Compound | CC50 (Vero cells) | CC50 (MDCK cells; dog) | Cytotoxicity MCC (minimum cytotoxic concentration) (MDCK cells; dog) | MIC (E. faecalis 15376 VanA) | MIC [1] | MIC [2] | MIC [3] | CC50 (HeLa cells) | Cytotoxicity MCC (HeLa cells) | Activity against influenza strains (in words) [4] | CC50 [5] | MIC [6] | MIC [7] | MIC Staphylococcus epidermidis ATCC 35984 biofilm [8] | Cytotoxicity in MDCK cells (in words) (MDCK cells) | further results |
| --- | --- | --- | --- | --- | --- | --- | --- | --- | --- | --- | --- | --- | --- | --- | --- | --- |
| CC(=O)NC1C(OC2c3ccc(c(Cl)c3)Oc3cc4cc(c3O)Oc3ccc(cc3Cl)CC3NC(=O)C(n5cc(COCCOCCCC(F)(F)C(F)(F)C(F)(F)C(F)(F)C(F)(F)C(F)(F)C(F)(F)C(F)(F)F)nn5)c5ccc(O)c(c5)Oc5cc(O)cc(c5)C(NC3=O)C(=O)NC4C(=O)NC3C(=O)NC2C(=O)NC(C(=O)O)c2cc(O)cc(O)c2-c2cc3ccc2O)OC(CO)C(O)C1O (centres unmarked) [Compound 17] | > 100 µM | 44 µM | 100 µM | 256 µg/mL (≈ 129 µM) | 16 µg/mL (≈ 8.05 µM) | 256 µg/mL (≈ 129 µM) | 256 µg/mL (≈ 129 µM) | > 100 µM | > 100 | robust activity | > 100 µM | 128 µg/mL (≈ 64.4 µM) | 16 µg/mL (≈ 8.05 µM) | 16 µg/mL (≈ 8.05 µM) | – | – |
| CC(=O)N[C@H]1[C@H]([C@H](O)[C@H](O)CO)OC(C(=O)O)=C[C@@H]1N=C(N)N [zanamivir] | – | – | >100 µM | – | – | – | – | – | – | – | – | – | – | – | – | EC50 ([9]; Influenza A virus, H3N2, MDCK, read-out: Antiviral EC50 A/H3N2 CPE): 20 µM; EC50 ([9]; Influenza A virus, H3N2, MDCK, read-out: Antiviral EC50 A/H3N2 MTS): 9 µM; CC50 (in vitro): > 100 µM; EC50 ([10]; Influenza B virus, B/Ned/537/05, MTS assay, read-out: Antiviral EC50 Influenza B MTS): 1.7 µM; EC50 ([10]; Influenza B virus, B/Ned/537/05, visual CPE scoring, read-out: Antiviral EC50 Influenza B CPE): 2 µM; EC50 ([11]; Influenza A virus, H1N1, MDCK, read-out: Antiviral EC50 A/H1N1 CPE): 1.5 µM; EC50 ([11]; Influenza A virus, H1N1, MDCK, read-out: Antiviral EC50 A/H1N1 MTS): 3.1 µM |
| CC(C)C[C@H](C(=O)N[C@H]1C(=O)N[C@@H](CC(N)=O)C(=O)N[C@H]2C(=O)N[C@H]3C(=O)N[C@H](C(=O)N[C@H](C(=O)O)c4cc(O)cc(O)c4-c4cc3ccc4O)[C@H](O)c3ccc(c(Cl)c3)Oc3cc2cc(c3O)Oc2ccc(cc2Cl)[C@H]1O)n1cc(COCCOCCOCCOCCOCCCC(F)(F)C(F)(F)C(F)(F)C(F)(F)C(F)(F)C(F)(F)C(F)(F)C(F)(F)F)nn1 [Compound 13] | – | 0.8 µM | 0.8 µM | 256 µg/mL (≈ 139 µM) | 8 µg/mL (≈ 4.33 µM) | 4 µg/mL (≈ 2.16 µM) | 32 µg/mL (≈ 17.3 µM) | > 100 µM | ≥ 100 | – | – | 16 µg/mL (≈ 8.66 µM) | 8 µg/mL (≈ 4.33 µM) | 16 µg/mL (≈ 8.66 µM) | highly cytotoxic | Antibacterial activity (in words) [12]: moderate activity |
| CC(=O)N[C@H]1[C@H](O[C@@H]2c3ccc(c(Cl)c3)Oc3cc4cc(c3O)Oc3ccc(cc3Cl)C[C@H]3NC(=O)[C@H](N=[N+]=[N-])c5ccc(O)c(c5)Oc5cc(O)cc(c5)[C@H](NC3=O)C(=O)N[C@H]4C(=O)N[C@H]3C(=O)N[C@@H]2C(=O)N[C@H](C(=O)O)c2cc(O)cc(O)c2-c2cc3ccc2O)O[C@H](CO)[C@@H](O)[C@@H]1O [Compound 14] | – | > 100 µM | >100 µM | – | – | – | – | – | – | – | – | – | – | – | – | – |
| CN[C@H](CC(C)C)C(=O)N[C@H]1C(=O)N[C@@H](CC(N)=O)C(=O)N[C@H]2C(=O)N[C@H]3C(=O)N[C@H](C(=O)N[C@H](C(=O)O)c4cc(O)cc(O)c4-c4cc3ccc4O)[C@H](O)c3ccc(c(Cl)c3)Oc3cc2cc(c3O[C@@H]2O[C@H](CO)[C@@H](O)[C@H](O)[C@H]2O[C@H]2C[C@](C)(N)[C@H](O)[C@H](C)O2)Oc2ccc(cc2Cl)[C@H]1O [VAN, vancomycin] | – | – | – | 256 µg/mL (≈ 177 µM) | 0.5 µg/mL (≈ 0.345 µM) | 1 µg/mL (≈ 0.69 µM) | 128 µg/mL (≈ 88.3 µM) | – | – | – | – | 0.5 µg/mL (≈ 0.345 µM) | 0.5 µg/mL (≈ 0.345 µM) | 2 µg/mL (≈ 1.38 µM) | – | – |
| CC(=O)NC1C(OC2c3ccc(c(Cl)c3)Oc3cc4cc(c3O)Oc3ccc(cc3Cl)CC3NC(=O)C(n5cc(COCCOCCCC(F)(F)C(F)(F)C(F)(F)C(F)(F)F)nn5)c5ccc(O)c(c5)Oc5cc(O)cc(c5)C(NC3=O)C(=O)NC4C(=O)NC3C(=O)NC2C(=O)NC(C(=O)O)c2cc(O)cc(O)c2-c2cc3ccc2O)OC(CO)C(O)C1O (centres unmarked) [Compound 15] | > 100 µM | > 100 µM | 100 µM | 1 µg/mL (≈ 0.559 µM) | 0.5 µg/mL (≈ 0.28 µM) | 0.5 µg/mL (≈ 0.28 µM) | 4 µg/mL (≈ 2.24 µM) | 43 µM | – | robust activity | > 100 µM | 0.5 µg/mL (≈ 0.28 µM) | 0.5 µg/mL (≈ 0.28 µM) | 0.5 µg/mL (≈ 0.28 µM) | – | Cytotoxicity MCC (Vero cells): > 100 |
| CC(=O)NC1C(OC2c3ccc(c(Cl)c3)Oc3cc4cc(c3O)Oc3ccc(cc3Cl)CC3NC(=O)C(n5cc(COCCOCCOCCOCCOCCCC(F)(F)C(F)(F)C(F)(F)C(F)(F)C(F)(F)C(F)(F)C(F)(F)C(F)(F)F)nn5)c5ccc(O)c(c5)Oc5cc(O)cc(c5)C(NC3=O)C(=O)NC4C(=O)NC3C(=O)NC2C(=O)NC(C(=O)O)c2cc(O)cc(O)c2-c2cc3ccc2O)OC(CO)C(O)C1O (centres unmarked) [Compound 18] | > 100 µM | 4.2 µM | – | 32 µg/mL (≈ 15.1 µM) | 8 µg/mL (≈ 3.77 µM) | 16 µg/mL (≈ 7.55 µM) | 32 µg/mL (≈ 15.1 µM) | 41 µM | – | without antiviral activity | > 100 µM | 4 µg/mL (≈ 1.89 µM) | 4 µg/mL (≈ 1.89 µM) | 4 µg/mL (≈ 1.89 µM) | high cytotoxicity | – |
| CC(C)C[C@H](C(=O)N[C@H]1C(=O)N[C@@H](CC(N)=O)C(=O)N[C@H]2C(=O)N[C@H]3C(=O)N[C@H](C(=O)N[C@H](C(=O)O)c4cc(O)cc(O)c4-c4cc3ccc4O)[C@H](O)c3ccc(c(Cl)c3)Oc3cc2cc(c3O)Oc2ccc(cc2Cl)[C@H]1O)n1cc(COCCOCCOCCOCCOCCCC(F)(F)C(F)(F)C(F)(F)C(F)(F)F)nn1 [Compound 12] | – | 4 µM | 42 µM | 16 µg/mL (≈ 9.71 µM) | 4 µg/mL (≈ 2.43 µM) | 8 µg/mL (≈ 4.85 µM) | 16 µg/mL (≈ 9.71 µM) | > 100 µM | > 100 | – | – | 32 µg/mL (≈ 19.4 µM) | 8 µg/mL (≈ 4.85 µM) | 8 µg/mL (≈ 4.85 µM) | highly cytotoxic | Antibacterial activity (in words) [12]: moderate activity |
| CC(=O)NC1C(OC2c3ccc(c(Cl)c3)Oc3cc4cc(c3O)Oc3ccc(cc3Cl)CC3NC(=O)C(n5cc(COCCOCCOCCOCCOCCCC(F)(F)C(F)(F)C(F)(F)C(F)(F)F)nn5)c5ccc(O)c(c5)Oc5cc(O)cc(c5)C(NC3=O)C(=O)NC4C(=O)NC3C(=O)NC2C(=O)NC(C(=O)O)c2cc(O)cc(O)c2-c2cc3ccc2O)OC(CO)C(O)C1O (centres unmarked) [Compound 16] | > 100 µM | 97 µM | 100 µM | 2 µg/mL (≈ 1.04 µM) | 0.5 µg/mL (≈ 0.26 µM) | 1 µg/mL (≈ 0.521 µM) | 1 µg/mL (≈ 0.521 µM) | > 100 µM | > 100 | robust activity | > 100 µM | 2 µg/mL (≈ 1.04 µM) | 0.5 µg/mL (≈ 0.26 µM) | 0.5 µg/mL (≈ 0.26 µM) | – | – |
| teicoplanin [reference compound] | – | – | – | – | – | – | – | – | – | – | – | – | – | 2 µg/mL | – | EC50 ([9]; read-out: Antiviral EC50 A/H3N2 CPE): > 100 µM; EC50 ([9]; read-out: Antiviral EC50 A/H3N2 MTS): > 100 µM; CC50 (MDCK cells): > 100 µM; Cytotoxicity MCC (minimum cytotoxic concentration) (MDCK cells): >100 µM; MIC E. faecalis 15376 VanA (E. faecalis 15376 VanA; vanA gene positive): 256 µg/mL; MIC Staphylococcus aureus MSSA ATCC 29213 ([1]; methicillin-sensitive): 0.5 µg/mL; MIC Enterococcus faecalis ATCC 29212 [2]: 2 µg/mL; MIC E. faecalis ATCC 51299 VanB ([3]; vanB gene positive): 4 µg/mL; MIC Bacillus subtilis ATCC 6633 [6]: 0.5 µg/mL; MIC S. aureus MRSA ATCC 33591 ([7]; methicillin-resistant): 0.5 µg/mL; EC50 ([10]; B/Ned/537/05, MTS assay, read-out: Antiviral EC50 Influenza B MTS): > 100 µM; EC50 ([10]; B/Ned/537/05, visual CPE scoring, read-out: Antiviral EC50 Influenza B CPE): > 100 µM; EC50 ([11]; read-out: Antiviral EC50 A/H1N1 CPE): > 100 µM; EC50 ([11]; read-out: Antiviral EC50 A/H1N1 MTS): > 100 µM |
